From paper PMC7171677 (ACS infectious diseases, 2019)
Converted amounts (≈) assume the structure as drawn. “Also recorded” adds a separate entry of the source. Where two headings read alike, the source gives them in different places.

Legend:
[1] = test system: PfENT1-expressing fui1Δ yeast; assay: 5-FUrd inhibition of PfENT1-expressing fui1Δ yeast growth; format: cell-based; details: Saccharomyces cerevisiae, read-out: IC50 for inhibition of yeast growth
PfENT1 [2] = molecular target: T1, PfENT1 (Plasmodium falciparum, UniProt Q8IDM6); assay: Yeast Kill Assay; format: cell-based
T1 sequence (Q8IDM6 1-422): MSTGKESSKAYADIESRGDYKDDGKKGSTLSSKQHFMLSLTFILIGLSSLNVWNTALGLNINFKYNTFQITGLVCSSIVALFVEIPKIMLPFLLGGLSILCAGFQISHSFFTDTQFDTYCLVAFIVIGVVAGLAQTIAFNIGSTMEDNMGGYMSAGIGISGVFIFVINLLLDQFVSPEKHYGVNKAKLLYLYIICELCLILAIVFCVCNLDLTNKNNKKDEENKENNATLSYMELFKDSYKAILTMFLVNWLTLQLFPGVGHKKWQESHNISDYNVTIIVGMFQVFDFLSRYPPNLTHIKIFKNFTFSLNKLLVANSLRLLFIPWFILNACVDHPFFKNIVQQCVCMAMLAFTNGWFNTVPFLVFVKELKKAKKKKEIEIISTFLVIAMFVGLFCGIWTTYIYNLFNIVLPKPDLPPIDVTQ

[3] = test system: HB3 strain P. falciparum parasites; assay: P. falciparum parasite proliferation, HB3 strain; format: cell-based; details: Plasmodium falciparum, HB3, read-out: HB3 parasite proliferation IC50
human serum albumin = human serum albumin (Homo sapiens, UniProt P02768); assay: HSA column binding; format: in vitro ADME
in vitro = format: cell-based; details: human
hENT1 = molecular target: T2, hENT1 (Homo sapiens, UniProt Q99808); assay: [3H]adenosine uptake into human RBC; format: cell-based; details: for hENT1 [3H]adenosine uptake into RBC IC50: mean ± SD, NE = no effect at 100 μM
T2 sequence (Q99808 1-456): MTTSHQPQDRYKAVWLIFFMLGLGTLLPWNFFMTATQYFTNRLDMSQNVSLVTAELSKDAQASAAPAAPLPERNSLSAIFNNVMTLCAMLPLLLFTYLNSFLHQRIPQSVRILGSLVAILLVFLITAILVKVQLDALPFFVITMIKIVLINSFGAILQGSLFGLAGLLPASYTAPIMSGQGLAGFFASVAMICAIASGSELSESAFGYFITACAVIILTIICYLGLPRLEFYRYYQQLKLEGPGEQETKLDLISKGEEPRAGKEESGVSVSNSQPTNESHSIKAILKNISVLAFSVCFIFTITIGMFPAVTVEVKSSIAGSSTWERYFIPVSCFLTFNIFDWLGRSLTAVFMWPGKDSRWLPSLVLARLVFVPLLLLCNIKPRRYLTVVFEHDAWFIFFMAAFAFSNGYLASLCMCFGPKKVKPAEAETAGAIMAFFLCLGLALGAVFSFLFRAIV

PvENT1 = PvENT1 (Plasmodium vivax, UniProt A5K8B0); assay: [3H]adenosine uptake into PvENT1-expressing yeast; format: cell-based
Property Forecast Index = format: physicochemical; details: chromatographic log D7.4 + aromatic ring count
PfENT1 [4] = molecular target: T1, PfENT1; assay: Yeast HTS Growth Assay
PfENT1 [5] = molecular target: T1, PfENT1; assay: [3H]adenosine uptake into PfENT1-expressing yeast; format: cell-based
[6] = test system: PfENT1-KO (pfent1Δ) parasites in the Dd2 background; assay: P. falciparum parasite proliferation, PfENT1-knockout; format: cell-based, Plasmodium falciparum; details: for IC50: Plasmodium falciparum, DD2, read-out: PfENT1-KO parasite proliferation IC50
[7] = test system: Dd2 strain P. falciparum parasites; assay: P. falciparum parasite proliferation, Dd2 strain; format: cell-based, Plasmodium falciparum
[8] = test system: 3D7 strain P. falciparum parasites; assay: P. falciparum parasite proliferation, 3D7 strain; format: cell-based; details: Plasmodium falciparum, 3D7, 48 h, read-out: 3D7 parasite proliferation IC50
Kinetic solubility = format: physicochemical; details: phosphate buffered saline, pH 7.4, aqueous buffer, kinetic from dmso stock
PfENT1 [9] = molecular target: T1, PfENT1; assay: Yeast Kill Assay; format: cell-based; remark: listed apart in the source
PbENT1 = PbENT1 (Plasmodium berghei, UniProt A0A509AYF4); assay: [3H]adenosine uptake into PbENT1-expressing yeast; format: cell-based
[10] = test system: 7G8 strain P. falciparum parasites; assay: P. falciparum parasite proliferation, 7G8 strain; format: cell-based; details: Plasmodium falciparum, 7G8, read-out: 7G8 parasite proliferation IC50
hFNT = molecular target: T3, hFNT (Homo sapiens, UniProt Q8NBI5); assay: [3H]hypoxanthine uptake into human RBC; format: cell-based; details: mean ± SD; 15 minutes; NE = no effect at 100 μM
T3 sequence (Q8NBI5 1-491): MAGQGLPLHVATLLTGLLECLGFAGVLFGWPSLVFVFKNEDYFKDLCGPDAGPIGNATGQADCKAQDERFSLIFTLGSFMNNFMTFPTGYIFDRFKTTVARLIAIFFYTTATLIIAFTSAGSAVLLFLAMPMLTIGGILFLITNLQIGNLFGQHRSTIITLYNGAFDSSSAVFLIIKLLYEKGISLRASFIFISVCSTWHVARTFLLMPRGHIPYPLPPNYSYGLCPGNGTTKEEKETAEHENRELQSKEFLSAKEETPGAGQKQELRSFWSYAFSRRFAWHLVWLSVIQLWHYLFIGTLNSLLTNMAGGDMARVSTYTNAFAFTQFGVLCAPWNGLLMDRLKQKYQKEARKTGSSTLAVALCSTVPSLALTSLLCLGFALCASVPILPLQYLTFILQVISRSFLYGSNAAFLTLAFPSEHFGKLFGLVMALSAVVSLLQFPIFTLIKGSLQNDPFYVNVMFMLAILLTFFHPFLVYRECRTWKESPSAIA

[11] = Plasmodium falciparum, DD2, read-out: Dd2 parasite proliferation IC50, mean ± SD

Chain of human serum albumin (P02768 25-609): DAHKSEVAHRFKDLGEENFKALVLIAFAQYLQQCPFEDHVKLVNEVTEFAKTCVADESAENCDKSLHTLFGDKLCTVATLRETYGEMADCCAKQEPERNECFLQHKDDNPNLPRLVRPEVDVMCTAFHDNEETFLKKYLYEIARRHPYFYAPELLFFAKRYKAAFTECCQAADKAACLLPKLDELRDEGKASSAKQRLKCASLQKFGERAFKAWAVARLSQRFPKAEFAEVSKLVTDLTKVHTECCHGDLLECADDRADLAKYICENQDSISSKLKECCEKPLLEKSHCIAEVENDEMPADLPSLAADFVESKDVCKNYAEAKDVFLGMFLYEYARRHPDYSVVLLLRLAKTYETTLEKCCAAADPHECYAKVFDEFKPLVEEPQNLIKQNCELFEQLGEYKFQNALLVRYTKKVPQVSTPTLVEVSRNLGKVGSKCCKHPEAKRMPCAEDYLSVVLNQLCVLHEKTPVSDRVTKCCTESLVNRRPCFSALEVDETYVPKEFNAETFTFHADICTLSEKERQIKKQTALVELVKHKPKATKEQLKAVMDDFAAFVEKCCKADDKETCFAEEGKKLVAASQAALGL
Chain of PvENT1 (A5K8B0 whole entry): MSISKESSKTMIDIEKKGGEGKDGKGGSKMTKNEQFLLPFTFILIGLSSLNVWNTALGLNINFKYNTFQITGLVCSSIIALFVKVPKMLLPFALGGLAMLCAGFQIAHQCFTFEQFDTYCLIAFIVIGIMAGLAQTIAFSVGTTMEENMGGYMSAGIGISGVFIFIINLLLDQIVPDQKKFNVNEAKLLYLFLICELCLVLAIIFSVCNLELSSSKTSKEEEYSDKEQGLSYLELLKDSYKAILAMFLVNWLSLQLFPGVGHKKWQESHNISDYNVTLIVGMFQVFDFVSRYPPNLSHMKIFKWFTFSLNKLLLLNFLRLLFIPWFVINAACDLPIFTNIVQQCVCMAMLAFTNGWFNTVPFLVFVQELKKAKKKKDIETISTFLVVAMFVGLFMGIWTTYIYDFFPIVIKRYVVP
Chain of PbENT1 (A0A509AYF4 whole entry): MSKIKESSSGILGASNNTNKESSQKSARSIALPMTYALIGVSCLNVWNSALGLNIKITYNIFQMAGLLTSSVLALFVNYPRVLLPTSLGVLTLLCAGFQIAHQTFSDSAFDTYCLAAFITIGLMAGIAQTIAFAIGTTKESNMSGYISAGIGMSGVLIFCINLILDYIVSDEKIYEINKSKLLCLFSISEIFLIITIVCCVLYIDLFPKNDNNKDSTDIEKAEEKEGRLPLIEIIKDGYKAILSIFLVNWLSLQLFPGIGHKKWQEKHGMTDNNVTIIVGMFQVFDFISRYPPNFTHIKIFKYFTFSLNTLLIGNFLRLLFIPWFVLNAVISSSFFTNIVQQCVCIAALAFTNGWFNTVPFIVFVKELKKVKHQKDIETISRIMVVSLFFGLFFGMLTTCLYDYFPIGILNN

SMILES: O=c1[nH]c(=O)n([C@@H]2O[C@H](CO)[C@@H](O)[C@H]2O)cc1F [5-FUrd, 5-fluorouridine]
- IC50 [1]: 4.8 µM

SMILES: COc1ccc(-c2nc(C(=O)Nc3cccc(-c4nnc5n4CCCCC5)c3)cs2)cc1OC [GSK-1, 2-(3,4-Dimethoxyphenyl)-N-[3-(6,7,8,9-tetrahydro-5H-[1,2,4]triazolo[4,3-a]azepin-3-yl)phenyl]-1,3-thiazole-4-carboxamide]
- IC50 (PfENT1 [2]): 0.54 ± 0.2 µM
- IC50 [3]: 0.34 ± 0.1 µM
- HSA Column binding (human serum albumin): 94%
- IC50 at 48 h (in vitro): > 100 µM
- IC50 (hENT1): 0.99 ± 0.81 µM
- IC50 (PvENT1): 0.14 ± 0.07 µM
- PFI (Property Forecast Index): 8.8
- EC50 (PfENT1 [4]): 3.16 µM
- IC50 (PfENT1 [5]): 0.12 ± 0.08 µM
- IC50 [6]: 17 ± 4.8 µM
- IC50 [7, 11]: 0.11 ± 0.009 µM
- IC50 [8]: 0.78 ± 0.2 µM
- solubility at 1 h (Kinetic solubility): 10.5 µg/mL (≈ 22.1 µM)
- IC50 (PfENT1 [9]): 0.63 µM
- IC50 (PbENT1): 0.13 ± 0.05 µM
- IC50 [10]: 0.48 ± 0.2 µM

SMILES: CCc1nnc(NC(=O)c2nc(-c3ccc(Cl)cc3)n3c2CCCCC3)s1 [GSK-2, 3-(4-Chlorophenyl)-N-(5-ethyl-1,3,4-thiadiazol-2-yl)-6,7,8,9-tetrahydro-5H-imidazo[1,5-a]azepine-1-carboxamide]
- IC50 (PfENT1 [2]): 0.11 ± 0.04 µM
- IC50 [3]: 3.55 ± 0.7 µM
- HSA Column binding (human serum albumin): 97%
- IC50 at 48 h (in vitro): > 100 µM
- IC50 (hENT1): 24.5 ± 24.8 µM
- IC50 (PvENT1): 0.04 ± 0.03 µM
- PFI (Property Forecast Index): 9.6
- EC50 (PfENT1 [4]): 0.25 µM
- IC50 (PfENT1 [5]): 0.03 ± 0.03 µM
- IC50 [6]: 2.66 µM
- IC50 [7, 11]: 1.89 ± 0.2 µM
- IC50 [8]: 2.25 ± 0.4 µM
- hFNT [3H]hypoxanthine uptake into RBC IC50 (hFNT): did not inhibit
- solubility at 1 h (Kinetic solubility): 2.5 µg/mL (≈ 6.22 µM)
- IC50 (PfENT1 [9]): < 0.08 µM
- IC50 (PbENT1): 0.05 ± 0.03 µM
- IC50 [10]: 4.52 ± 0.1 µM

SMILES: O=C(Nc1ccccc1C(=O)NC1CC1)c1cccc(N2CCCC2=O)c1 [GSK-3, N-Cyclopropyl-2-{[3-(2-oxo-1-pyrrolidinyl)benzoyl]amino}benzamide]
- IC50 (PfENT1 [2]): 0.46 ± 0.3 µM
- IC50 [3]: 2.21 ± 0.6 µM
- HSA Column binding (human serum albumin): 84%
- IC50 at 48 h (in vitro): > 100 µM
- IC50 (hENT1): 72.4 ± 19.3 µM
- IC50 (PvENT1): 0.04 ± 0.01 µM
- PFI (Property Forecast Index): 6
- EC50 (PfENT1 [4]): 2.51 µM
- IC50 (PfENT1 [5]): 0.03 ± 0.01 µM
- PfENT1-KO parasite proliferation IC50 ([6]; 75 μM hypoxanthine, NE = no effect at 74.2 μM, N=1 for GSK-2 and GSK-5): Low activity/NE^e
- IC50 [7, 11]: 0.59 ± 0.05 µM
- IC50 [8]: 2.38 ± 0.5 µM
- solubility at 1 h (Kinetic solubility): 112 µg/mL (≈ 308 µM)
- IC50 (PfENT1 [9]): 0.63 µM
- IC50 (PbENT1): 0.07 ± 0.04 µM
- IC50 [10]: 6.08 ± 1.3 µM

SMILES: Cc1oc(-c2ccccc2)nc1C(=O)NCCN1CCCCCC1=O [GSK-4, 5-Methyl-N-[2-(2-oxo-1-azepanyl)ethyl]-2-phenyl-1,3-oxazole-4-carboxamide]
- IC50 (PfENT1 [2]): 0.43 ± 0.3 µM
- IC50 [3]: 6.16 ± 2.5 µM
- HSA Column binding (human serum albumin): 92%
- IC50 at 48 h (in vitro): > 100 µM
- IC50 (hENT1): 51 ± 27.7 µM
- IC50 (PvENT1): 0.02 ± 0.04 µM
- PFI (Property Forecast Index): 6.5
- EC50 (PfENT1 [4]): 3.98 µM
- IC50 (PfENT1 [5]): 0.02 ± 0.01 µM
- IC50 [6]: 29.4 ± 0.5 µM
- IC50 [7, 11]: 1.9 ± 0.4 µM
- IC50 [8]: 6.2 ± 1.9 µM
- hFNT [3H]hypoxanthine uptake into RBC IC50 (hFNT): did not inhibit
- solubility at 1 h (Kinetic solubility): 156 µg/mL (≈ 457 µM)
- IC50 (PfENT1 [9]): 1.26 µM
- IC50 (PbENT1): 0.01 ± 0.01 µM
- IC50 [10]: 8.44 ± 2.4 µM

SMILES: CC(=O)Nc1nc(-c2c(F)cccc2F)cs1 [GSK-5, N-[4-(2,6-Difluorophenyl)-1,3-thiazol-2-yl]acetamide]
- IC50 (PfENT1 [2]): 4 ± 1.3 µM
- IC50 [3]: 9.09 ± 4.5 µM
- HSA Column binding (human serum albumin): 90%
- IC50 at 48 h (in vitro): > 100 µM
- hENT1 [3H]adenosine uptake into RBC IC50 (hENT1): did not inhibit; also recorded: Low activity/NE^d
- IC50 (PvENT1): 2.71 ± 0.25 µM
- PFI (Property Forecast Index): 5.7
- EC50 (PfENT1 [4]): 63.1 µM
- IC50 (PfENT1 [5]): 2.59 ± 2.36 µM
- IC50 [6]: 10.8 µM
- IC50 [7, 11]: 10.6 ± 2.1 µM
- IC50 [8]: 8.72 ± 1.6 µM
- solubility at 1 h (Kinetic solubility): 16 µg/mL (≈ 62.9 µM)
- IC50 (PfENT1 [9]): 6.31 µM
- IC50 (PbENT1): 3.09 ± 2.7 µM
- IC50 [10]: 16.1 ± 5.5 µM

SMILES: CCn1cnnc1C1CCN(C(=O)c2cn3ccc(C)cc3n2)CC1 [GSK-6, [4-(4-Ethyl-4H-1,2,4-triazol-3-yl)-1-piperidinyl](7-methylimidazo[1,2-a]pyridin-2-yl)methanone]
- IC50 (PfENT1 [2]): 1.2 ± 1.1 µM
- IC50 [3]: 19.7 ± 4.1 µM
- HSA Column binding (human serum albumin): 48%
- IC50 at 48 h (in vitro): > 100 µM
- hENT1 [3H]adenosine uptake into RBC IC50 (hENT1): did not inhibit
- PvENT1 [3H]Ado uptake IC50 (PvENT1; mean ± SD, yeast expressing P. vivax ENT1, NE = no effect at 100 μM): did not inhibit
- PFI (Property Forecast Index): 4.2
- EC50 (PfENT1 [4]): 10 µM
- IC50 (PfENT1 [5]): 3.98 ± 1.35 µM
- IC50 [6]: > 100 µM
- IC50 [7, 11]: 1.89 µM
- IC50 ([7]; read-out: Dd2 parasite proliferation IC50, mean ± SD): 3.3 ± 1.7 µM
- IC50 [8]: 10.3 ± 4.7 µM
- hFNT [3H]hypoxanthine uptake into RBC IC50 (hFNT): did not inhibit
- solubility at 1 h (Kinetic solubility): > 133 µg/mL
- IC50 (PfENT1 [9]): 1.26 µM
- PbENT1 [3H]Ado uptake IC50 (PbENT1; mean ± SD, yeast expressing P. berghei ENT1, NE = no effect at 100 μM): did not inhibit
- IC50 [10]: 19 ± 3.5 µM
